For experiment [1], the system named is MCF7. Put plainly: Increase in phosphorylation motif of protein kinase A in human MCF7 cells at 100 uM by immunoblotting analysis. It counts as cell-based. For orientation: In western blotting, separated proteins are transferred to a membrane and probed.
The target in experiment [2] is Ribosomal protein S6 kinase alpha-1 (Homo sapiens) (UniProt Q15418). Briefly: Inhibition of RSK in PMA-stimulated human MCF7 cells assessed as decrease in intensity of band at 65 and 27 kDa at 100 uM by immunoblotting analysis. It counts as cell-based.
The test system of experiment [3] is MCF7. Briefly: Antiproliferative activity against human MCF7 cells at 100 uM after 48 hrs by CellTiterGlo assay. It counts as functional. A general note: ATP-based viability assays read luminescence as a measure of living cells.
The test system of experiment [4] is MCF7. Briefly: Reduction in cyclin D1 in PMA-stimulated human MCF7 cells at 100 uM by immunoblotting analysis. It counts as functional, cell-based.
In experiment [5] the target is Ribosomal protein S6 kinase alpha-1 (Homo sapiens) (UniProt Q15418). Put plainly: Inhibition of RSK in PMA-stimulated human MCF7 cells assessed as increase in phosphorylation of eEF2 at 100 uM by immunoblotting analysis. It counts as cell-based.
Experiment [6] concerns the target Ribosomal protein S6 kinase alpha-3 (Homo sapiens, UniProt P51812). Put plainly: Inhibition of RSK2 (unknown origin) assessed as phosphorylation by Western lightning enhanced chemiluminescent reagent/HRP activity assay.
Experiment [7] deals with MCF-10A. Put plainly: Antiproliferative activity against human MCF10A cells at 100 uM after 48 hrs by CellTiterGlo assay. It counts as functional, cell-based.
In experiment [8] the test system is MCF7. Put plainly: Increase in phosphorylation motif of protein kinase A in human MCF7 cells at 50 uM by immunoblotting analysis. It counts as cell-based.
For experiment [9], the system named is MCF7. Briefly: Effect on phosphorylation motif of tyrosine kinase in human MCF7 cells at 50 uM by immunoblotting analysis. It counts as cell-based.
The target of experiment [10] is Protein kinase C (PKC) (Homo sapiens) (UniProt O94806+P41743+P17252+P05129+Q05655+P05771+Q05513+Q02156+P24723+Q15139+Q04759). Put plainly: Effect on phosphorylation motif of protein kinase C in human MCF7 cells at 50 uM by immunoblotting analysis. It counts as cell-based.
In experiment [11] the test system is MCF7. Briefly: Antiproliferative activity against human MCF7 cells at 50 uM after 48 hrs by CellTiterGlo assay. It counts as functional, cell-based.
In experiment [12] the test system is MCF7. Put plainly: Reduction in cyclin D1 in PMA-stimulated human MCF7 cells at 50 uM by immunoblotting analysis. It counts as functional, cell-based.
Experiment [13] concerns MCF-10A. Put plainly: Antiproliferative activity against human MCF10A cells at 50 uM after 48 hrs by CellTiterGlo assay. It counts as functional, cell-based.
The target of experiment [14] is Ribosomal protein S6 kinase alpha-1 (Homo sapiens) (UniProt Q15418). Briefly: Inhibition of RSK in PMA-stimulated human MCF7 cells assessed as decrease in intensity of band at 65 and 27 kDa at 50 uM by immunoblotting analysis. It counts as cell-based.
For experiment [15] the target is unchanged. Briefly: Inhibition of RSK in PMA-stimulated human MCF7 cells assessed as increase in phosphorylation of eEF2 at 50 uM by immunoblotting analysis. It counts as cell-based.
The test system of experiment [16] is MCF-10A. Put plainly: Antiproliferative activity against human MCF10A cells at 25 uM after 48 hrs by CellTiterGlo assay. It counts as functional, cell-based.
In experiment [17] the test system is MCF7. Put plainly: Antiproliferative activity against human MCF7 cells at 25 uM after 48 hrs by CellTiterGlo assay. Particulars: MCF7, 48 h. It counts as functional.

Activity calls are given as the source filed them. The rule behind the calls is not given here.

Sequence of Ribosomal protein S6 kinase alpha-3 (P51812 whole entry): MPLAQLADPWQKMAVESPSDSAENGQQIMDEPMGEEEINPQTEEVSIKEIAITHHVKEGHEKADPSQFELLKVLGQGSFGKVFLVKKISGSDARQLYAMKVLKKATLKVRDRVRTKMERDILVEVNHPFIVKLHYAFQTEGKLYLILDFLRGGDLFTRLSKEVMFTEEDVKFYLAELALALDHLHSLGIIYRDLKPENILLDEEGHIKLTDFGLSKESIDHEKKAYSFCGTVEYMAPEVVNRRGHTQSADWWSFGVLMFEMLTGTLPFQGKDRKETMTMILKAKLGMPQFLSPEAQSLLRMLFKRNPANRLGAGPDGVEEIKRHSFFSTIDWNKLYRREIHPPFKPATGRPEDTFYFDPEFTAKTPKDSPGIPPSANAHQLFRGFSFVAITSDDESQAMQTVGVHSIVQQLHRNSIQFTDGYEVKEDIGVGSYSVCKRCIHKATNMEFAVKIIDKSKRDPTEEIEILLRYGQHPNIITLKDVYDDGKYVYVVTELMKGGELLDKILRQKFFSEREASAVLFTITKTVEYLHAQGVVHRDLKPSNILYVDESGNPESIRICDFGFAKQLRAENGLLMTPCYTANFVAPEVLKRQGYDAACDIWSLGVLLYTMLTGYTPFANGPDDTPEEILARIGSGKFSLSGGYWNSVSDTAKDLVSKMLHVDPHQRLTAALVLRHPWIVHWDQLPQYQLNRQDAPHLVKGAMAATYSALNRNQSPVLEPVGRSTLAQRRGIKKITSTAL
Sequence of Ribosomal protein S6 kinase alpha-1 (Homo sapiens) (Q15418 whole entry): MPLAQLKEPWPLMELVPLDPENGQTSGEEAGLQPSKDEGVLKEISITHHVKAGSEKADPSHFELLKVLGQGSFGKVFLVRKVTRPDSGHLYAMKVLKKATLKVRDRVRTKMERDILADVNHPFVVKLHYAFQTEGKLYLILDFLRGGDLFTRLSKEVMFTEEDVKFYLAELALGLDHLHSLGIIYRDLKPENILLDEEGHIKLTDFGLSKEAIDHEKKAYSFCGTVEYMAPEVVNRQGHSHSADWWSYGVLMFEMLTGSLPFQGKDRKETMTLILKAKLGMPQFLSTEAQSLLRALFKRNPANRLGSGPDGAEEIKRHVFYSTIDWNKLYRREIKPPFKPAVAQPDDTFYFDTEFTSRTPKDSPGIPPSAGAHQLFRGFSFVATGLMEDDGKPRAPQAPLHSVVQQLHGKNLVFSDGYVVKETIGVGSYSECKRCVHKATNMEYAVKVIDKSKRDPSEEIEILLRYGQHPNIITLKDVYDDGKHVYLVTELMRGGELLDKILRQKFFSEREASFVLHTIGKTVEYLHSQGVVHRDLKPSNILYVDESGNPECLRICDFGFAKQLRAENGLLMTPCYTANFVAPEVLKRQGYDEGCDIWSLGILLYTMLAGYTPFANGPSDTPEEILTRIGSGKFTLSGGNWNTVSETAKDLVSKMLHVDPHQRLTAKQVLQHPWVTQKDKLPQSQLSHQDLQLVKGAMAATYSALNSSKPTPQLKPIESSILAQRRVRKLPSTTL

Broadly, the inhibition is the share of the control response that was lost under treatment. As to `CC(=O)O[C@@H]1[C@@H](OC(C)=O)[C@@H](O)[C@H](Oc2c(-c3ccc(O)cc3)oc3cc(O)cc(O)c3c2=O)O[C@H]1C`, the result (with MCF7 [1]; in experiment [5]) was Active. Besides, the inhibition result (in experiment [2]; in the experiment on MCF7 [4]) was “Active” in each case. This compound also returned an inhibition at 100 µM in the experiment with MCF7 [3] (MCF7, 48 h) of 60%.

For orientation: IC50 means the concentration at which inhibition is half-maximal. In the case of `CC(=O)O[C@H]1[C@@H](O)[C@H](Oc2c(-c3ccc(O)cc3)oc3cc(O)cc(O)c3c2=O)CC[C@@H]1OC(C)=O`, in experiment [6] (read-out: IC50), the IC50 came to 8930 nM.

Turning to `CC(=O)O[C@@H]1[C@@H](O)[C@@H](O)[C@H](Oc2c(-c3ccc(O)cc3)oc3cc(O)cc(O)c3c2=O)C[C@H]1C`, the IC50 in [6] (read-out: IC50) turned out to be 1230 nM. In addition, the inhibition entry in the experiment on MCF7 [3] and in the experiment on MCF-10A [7] was “Active” in each case.

Take `CC(=O)O[C@@H]1[C@@H](O)[C@@H](OC(C)=O)[C@H](Oc2c(-c3ccc(O)cc3)oc3cc(O)cc(O)c3c2=O)C[C@H]1C`: the result (in the experiment on MCF7 [8]; in the experiment on MCF7 [9]; in experiment [10]; with MCF7 [12]) was inactive. Besides, the IC50 in experiment [6] (read-out: IC50) was found to be 1600 nM. The inhibition result in the experiment on MCF7 [11] and with MCF-10A [13] was “Active” throughout. For the same compound, in experiment [14], the inhibition entry was “inactive”. Moreover, the outcome in experiment [15] was Active.

In the case of `CC(=O)O[C@H]1[C@H](O)[C@H](O)[C@@H](Oc2c(-c3ccc(O)cc3)oc3cc(O)cc(O)c3c2=O)C[C@@H]1C`, the IC50 result in experiment [6] was “Not Active”. In addition, the inhibition entry with MCF7 [3] and in the experiment on MCF-10A [7] was “inactive” each time.

As for `CC(=O)O[C@@H]1[C@@H](OC(C)=O)[C@@H](O)[C@H](Oc2c(-c3ccc(O)cc3)oc3cc(O)cc(O)c3c2=O)C[C@H]1C`, the result (in the experiment with MCF7 [8]; with MCF7 [9]; in experiment [10]; in the experiment on MCF7 [12]) was inactive. Besides, the inhibition entry with MCF-10A [16], in the experiment with MCF7 [11] and with MCF-10A [13] was “Active” each time. Also, the IC50 in experiment [6] (read-out: IC50) came out at 270 nM. For the same compound, in the experiment with MCF7 [17], at 25 µM the inhibition was 60%. Besides, the inhibition entry in experiment [14] was “inactive”. In addition, in experiment [15], the outcome was Active.

For `CC(=O)O[C@H]1[C@@H](O)[C@H](OC(C)=O)[C@@H](C)C[C@@H]1Oc1c(-c2ccc(O)cc2)oc2cc(O)cc(O)c2c1=O`, the IC50 entry in experiment [6] is recorded as “Not Active”.

Consider `CC(=O)O[C@@H]1[C@H](O)[C@@H](Oc2c(-c3ccc(O)cc3)oc3cc(O)cc(O)c3c2=O)C[C@H](C)[C@H]1OC(C)=O`, for which the IC50 entry in experiment [6] is “Not Active”.

Regarding `CC(=O)O[C@@H]1[C@H](O)[C@@H](Oc2c(-c3ccc(O)cc3)oc3cc(O)cc(O)c3c2=O)CC[C@H]1OC(C)=O`, the IC50 entry in experiment [6] is “Not Active”.
